The text below walks through data of patent US6545028B2, “Chemical compounds having ion channel blocking activity for the treatment of immune dysfunction” (NeuroSearch A/S, priority 1997, dated 2003).

The target in assay [1] is human placenta Ca^2+-activated, intermediate conductance potassium channel protein (IKCa) (Homo sapiens, UniProt O15554). The assay can be described thus: Whole cell patch clamp on HEK293 or CHO cells transfected with the human IKCa channel. It counts as cell-based. The note with it: 1 μM Clotrimazole added to the bath solution; reversed by washout. On the technique in general: Patch clamp records ionic current or voltage across a cell membrane.
Protocol: HEK293 or CHO tissue culture cells were grown in DMEM (Dulbecco's Modified Eagle Medium) supplemented with 10% FCS (foetal calf serum) at 37° C. in 5% CO2. One day prior to transfection, 10^6 cells were plated in a cell culture T25 flask. The following day, cells were transfected using lipofection (20 μL Lipofectamin™, Life Technologies, with 2.5 μg of the plasmid pNS2Z_hIK2 in a total volume of 540 μL). The lipofection mixture was overlaid on the cells and incubated at 37° C. for 5 hours.
The cells were then rinsed with regular media and plated to a 30 mm culture dish. 18-48 hours after, transfected cells were assayed for the presence of Ca^2+-activated, intermediate conductance potassium channel protein by electrophysiological measurements.
Whole cell currents were recorded using a pipette solution of 144 mM KCl, 1 mM EGTA, 9 mM NTA, 1.085 mM CaCl2, 5.54 mM MgCl2, and 10 mM HEPES (pH 7.2) and a bath solution of 144 mM KCl, 2 mM CaCl2, 1 mM MgCl2, 0.01% (w/v) BSA and 10 mM HEPES (pH=7.4). Current traces were recorded from cells containing human Ca^2+-activated, intermediate conductance potassium channels after application of voltage ramps (−100 mV to +100 mV, 200 ms duration).

For assay [2], the system named is T cells. As to the kind of experiment: Inhibition of antigen induced T cell proliferation ([^3H]thymidine incorporation). The note with it: Antigen (crude Candida albicans extract, 10 μg/ml), 144 hours culture. It counts as cell-based. The protocol: The chemical compounds used according to the invention prevent immunological proliferation by selective inhibition of the Ca^2+-activated K-channels in T- and B-lymphocytes. This effect may be verified using various proliferation assays. In this experiment the proliferative assay described by Ødum et al. [Ødum N, Kanner S B, Ledbetter J A, & Svejgaard A; J. Immunol. 1993 150 (12) 5289-5298] was used.
Assays were performed in culture medium (RPMI 1640; available from Gibco, Grand island, N.Y.) supplemented with 10% pooled human serum, 2 mM L-glutamine, 100 μg/ml penicillin, and 100 μg/ml streptomycin (available from Novo Nordisk, Copenhagen, Denmark) in 96-well round bottom tissue culture plates (available from Nunc, Roskilde, Denmark) with a final volume of 200 μl.
T cells were preincubated for three hours with the test compounds before addition of antigen (crude Candida albicans extract, 10 μg/ml). T cells were cultured at 5×10^4 cells/well for 144 hours. Twelve hours before harvest, [^3H]thymidine ([…]) was added. The cells were harvested onto glass fibre filters, and the [^3H]thymidine incorporation was measured in a scintillation counter. The results were expressed as mean counts per minute (cpm) from triplicate cultures.
On the technique in general: Dividing cells build labelled thymidine or BrdU into new DNA.

Regarding `Clc1ccccc1C(c1ccccc1)(c1ccccc1)n1ccnc1` [Clotrimazole, 1-[(2-chlorophenyl)-diphenyl-methyl]-1H-imidazole], the “Effect on the Ca^2+-activated potassium current” value in assay [1] is listed as “inhibition of the Ca^2+-activated potassium current”. Besides, the “T Cell Proliferation” value in assay [2] (test compound 1 μM) turned out to be 5.8 cpm × 10^−3; in assay [2] (test compound 5 μM) it was 4.2 cpm × 10^−3; in assay [2] (test compound 10 μM), 1.8 cpm × 10^−3.

With `CCOC(=O)C1=C(C)NC(C)=C(C(=O)OC)C1c1cccc([N+](=O)[O-])c1` (stereo not shown) [Nitrendipine, 1,4-dihydro-2,6-dimethyl-4-(3-nitrophenyl)pyridine-3,5-dicarboxylic acid ethyl methyl ester], the “T Cell Proliferation” value in assay [2] (test compound 1 μM) came out at 5.6 cpm × 10^−3; in assay [2] (test compound 5 μM) it was 3.8 cpm × 10^−3; in assay [2] (test compound 10 μM), 4.0 cpm × 10^−3.
